Data published in patent US20080200404A1, “Novel Antimalarial 9A-Carbamoyl-Aminoalkyl and 9A-Thiocarbamoyl-Aminoalkyl Azalides” (priority 2005, published 2008).
In brackets after ≈: the same amount, converted by molar mass.

How the values were obtained:
[1] = tested on: Plasmodium falciparum clone CDC/Sierra Leone I (D-6); experiment: In vitro antimalarial [3H]-hypoxanthine incorporation serial dilution assay, D6; format: cell-based; conditions: Plasmodium falciparum, D6, 72 h, P. falciparum D6, 72 hours exposure; read-out: IC50 D6
Text: (§1) The in vitro screens for intrinsic antimalarial activity were based on modifications of the procedures described by Desjardins R E, Canfield C J, Haynes J D, Chulay J D. (Quantitative assessment of antimalarial activity in vitro by a semiautomated microdilution technique. Antimicrob Agents Chemother. 1979 December; 16(6):710-8.), Chulay J D, Haynes J D, Diggs C L. (Plasmodium falciparum: Assessment of in vitro growth by [3H]hypoxanthine incorporation. Exp. Parasitol. 1983 55:138-146.), and Milhous W K, Weatherly N F, Bowdre J H, Desjardins R E. (In vitro activities of and mechanisms of resistance to antifol antimalarial drugs. Antimicrob Agents Chemother. 1985 April; 27(4):525-30.). The system was limited to the assessment of the intrinsic activity against the erythrocytic asexual life cycle (blood schizontocides). Two Plasmodium falciparum clones from CDC/Indochina III (W-2) and CDC/Sierra Leone I (D-6) (Oduola A M, Weatherly N F, Bowdre J H, Desjardins R E. Plasmodium falciparum: cloning by single-erythrocyte micromanipulation and heterogeneity in vitro. Exp Parasitol. 1988 66(1):86-95.) were used for all assays. TM91C235, a multiple drug resistant isolate from Thailand, was used for the prescreening assay. W-2 is resistant to chloroquine, quinine, and pyrimethamine and susceptible to mefloquine. D-6 tends to be more resistant to mefloquine and susceptible to chloroquine, quinine, and pyrimethamine. All documents cited in this paragraph are incorporated by reference in their entirety.
(§2) All parasites were maintained in continuous long term cultures in RPMI-1640 medium supplemented with 6% washed human A positive (A+)(erythrocytes, 25 mM Hepes, […], and 10% heat inactivated A+human plasma or ALBUMAX® (lipid-rich bovine serum albumin; Invitrogen, Carlsbad, Calif.). All cultures and assays were conducted at 37° C. under an atmosphere of 5% CO2 and 5% O2, with a balance of N2.
(§3) After the preincubation, [^3H]-hypoxanthine was added to each well of the MTP. (The assay relies on the incorporation of radiolabeled hypoxanthine by the parasites, which indicates reproduction, and inhibition of isotope incorporation was attributed to activity of known or candidate antimalarial drugs). After 72 hr of total incubation time, the MTP were frozen to lyse the erythrocytes and parasites. The parasite DNA was recovered by harvesting the lysate onto glass-fiber filter plates using a Packard FilterMate™ Cell Harvester. The radioactivity was counted on a Packard TopCount™ microplate scintillation counter. The results were recorded as counts per minutes (CPM) per well at each drug concentration divided by the arithmetic mean of the CPM from the three untreated infection parasite control wells.
The serial dilution assay was conducted using the same assay conditions and stock solution of the compound used for the preliminary screen, described above. Both the D-6 and the W-2 clones were used. The compounds were diluted two-fold over 11 different concentration ranges with a starting concentration that was based on the preliminary screen. For each drug, the concentration response profile was determined and 50% inhibitory concentrations (IC50) were determined by using a non-linear, logistic dose response analysis program. […] For each assay, the IC50 for each clone was determined against the known antimalarials chloroquine and mefloquine. These control values established the compound's relative parasite susceptibility profile compared to known antimalarials. […]
The in vitro potency of the compounds has been compared with that of azithromycin to better gauge compounds suitable for further testing. As described above, parasites were exposed for 72 hours. Data from the in vitro potency tests of azithromycin against the three parasite strains have been averaged, and these numbers have been used for identification of “active” macrolide compounds.

[2] = tested on: Plasmodium falciparum TM91C235; experiment: In vitro antimalarial [3H]-hypoxanthine incorporation assay, TM91C235; format: cell-based; conditions: Plasmodium falciparum; P. falciparum TM91C235 (multiple drug resistant isolate), 72 hours exposure
Text: as §1, §2
The prescreening assay uses TM91C235 diluted at a 0.4% parasitemia in a 1% hematocrit in folic acid free and p-aminobenzoic acid free media RPMI-1640 and ALBUMAX®. One mg of the compound is typically dissolved in 100 μl of dimethyl sulfoxide (DMSO). The compound is further diluted in culture medium (FF) with ALBUMAX® for the first initial starting concentration. The rest of the stock drug solution was kept at −70° C. The isolate was preexposed, in duplicate, at three concentrations (25,000 ng/ml, 2,500 ng/ml, and 25 ng/ml) of the test compound for 48 hr in a 96-well microtiter plate (MTP) using the BIOMEK® 2000 automated laboratory workstation. Each MTP contains chloroquine as control to assess the relative activity of the compound and to monitor the response of TM91C235.
as §3
The serial dilution assay was conducted using the same assay conditions and stock solution of the compound used for the preliminary screen, described above. Both the D-6 and the W-2 clones were used. The compounds were diluted two-fold over 11 different concentration ranges with a starting concentration that was based on the preliminary screen. […]

Row | SMILES | IC50 [1] | IC50 [2]
1 | CC[C@H]1OC(=O)[C@H](C)[C@@H](O[C@H]2C[C@@](C)(OC)[C@@H](O)[C@H](C)O2)[C@H](C)[C@@H](O[C@@H]2O[C@H](C)C[C@H](N(C)C)[C@H]2O)[C@](C)(O)C[C@@H](C)CN(CCCNC(=O)Nc2cc(C(=O)OC)cc(C(=O)OC)c2)[C@H](C)[C@@H](O)[C@]1(C)O [Example 72] | 0.665 µg/mL (≈ 0.648 µM) | 0.422 µg/mL (≈ 0.411 µM)
2 | CC[C@H]1OC(=O)[C@H](C)[C@@H](O[C@H]2C[C@@](C)(OC)[C@@H](O)[C@H](C)O2)[C@H](C)[C@@H](O[C@@H]2O[C@H](C)C[C@H](N(C)C)[C@H]2O)[C@](C)(O)C[C@@H](C)CN(CCCNC(=O)Nc2ccc(C)cc2)[C@H](C)[C@@H](O)[C@]1(C)O [Example 73] | 0.305 µg/mL (≈ 0.33 µM) | 0.128 µg/mL (≈ 0.139 µM)
3 | CC[C@H]1OC(=O)[C@H](C)[C@@H](O[C@H]2C[C@@](C)(OC)[C@@H](O)[C@H](C)O2)[C@H](C)[C@@H](O[C@@H]2O[C@H](C)C[C@H](N(C)C)[C@H]2O)[C@](C)(O)C[C@@H](C)CN(CCCNC(=O)Nc2ccc(C)cc2C)[C@H](C)[C@@H](O)[C@]1(C)O.O=CO [Example 75] | 0.479 µg/mL | 0.229 µg/mL
4 | CC[C@H]1OC(=O)[C@H](C)[C@@H](O[C@H]2C[C@@](C)(OC)[C@@H](O)[C@H](C)O2)[C@H](C)[C@@H](O[C@@H]2O[C@H](C)C[C@H](N(C)C)[C@H]2O)[C@](C)(O)C[C@@H](C)CN(CCCNC(=O)NC(C)(C)CC(C)(C)C)[C@H](C)[C@@H](O)[C@]1(C)O.O=CO [Example 78] | 0.267 µg/mL | 0.182 µg/mL
5 | CC[C@H]1OC(=O)[C@H](C)[C@@H](O[C@H]2C[C@@](C)(OC)[C@@H](O)[C@H](C)O2)[C@H](C)[C@@H](O[C@@H]2O[C@H](C)C[C@H](N(C)C)[C@H]2O)[C@](C)(O)C[C@@H](C)CN(CCCNC(=S)Nc2ccc(OCc3ccccc3)cc2)[C@H](C)[C@@H](O)[C@]1(C)O.O=CO [Example 115] | 0.269 µg/mL | 0.172 µg/mL
6 | CC[C@H]1OC(=O)[C@H](C)[C@@H](O[C@H]2C[C@@](C)(OC)[C@@H](O)[C@H](C)O2)[C@H](C)[C@@H](O[C@@H]2O[C@H](C)C[C@H](N(C)C)[C@H]2O)[C@](C)(O)C[C@@H](C)CN(CCCNC(=S)NC2CCCCCCCCCCC2)[C@H](C)[C@@H](O)[C@]1(C)O.O=CO [Example 116] | 0.281 µg/mL | 0.149 µg/mL
7 | CC[C@H]1OC(=O)[C@H](C)[C@@H](O[C@H]2C[C@@](C)(OC)[C@@H](O)[C@H](C)O2)[C@H](C)[C@@H](O[C@@H]2O[C@H](C)C[C@H](N(C)C)[C@H]2O)[C@](C)(O)C[C@@H](C)CN(CCCNC(=S)NCc2ccc3c(c2)CCC3)[C@H](C)[C@@H](O)[C@]1(C)O.O=CO [Example 117] | 0.329 µg/mL | 0.223 µg/mL
8 | CC[C@H]1OC(=O)[C@H](C)[C@@H](O[C@H]2C[C@@](C)(OC)[C@@H](O)[C@H](C)O2)[C@H](C)[C@@H](O[C@@H]2O[C@H](C)C[C@H](N(C)C)[C@H]2O)[C@](C)(O)C[C@@H](C)CN(CCCNC(=S)Nc2ccc(/N=N/c3ccccc3)cc2)[C@H](C)[C@@H](O)[C@]1(C)O [Example 118] | 0.111 µg/mL (≈ 0.107 µM) | 0.0993 µg/mL (≈ 0.0963 µM)

Continued, values first:

Row | IC50 [1] | IC50 [2] | SMILES
9 | 0.318 µg/mL (≈ 0.332 µM) | 0.131 µg/mL (≈ 0.137 µM) | CC[C@H]1OC(=O)[C@H](C)[C@@H](O[C@H]2C[C@@](C)(OC)[C@@H](O)[C@H](C)O2)[C@H](C)[C@@H](O[C@@H]2O[C@H](C)C[C@H](N(C)C)[C@H]2O)[C@](C)(O)C[C@@H](C)CN(CCCNC(=O)Nc2cccc(SC)c2)[C@H](C)[C@@H](O)[C@]1(C)O [Example 71]
10 | 0.568 µg/mL (≈ 0.609 µM) | 0.133 µg/mL (≈ 0.142 µM) | CC[C@H]1OC(=O)[C@H](C)[C@@H](O[C@H]2C[C@@](C)(OC)[C@@H](O)[C@H](C)O2)[C@H](C)[C@@H](O[C@@H]2O[C@H](C)C[C@H](N(C)C)[C@H]2O)[C@](C)(O)C[C@@H](C)CN(CCCNC(=O)NCC2CCCCC2)[C@H](C)[C@@H](O)[C@]1(C)O [Example 74]
11 | 0.298 µg/mL | 0.126 µg/mL | CC[C@H]1OC(=O)[C@H](C)[C@@H](O[C@H]2C[C@@](C)(OC)[C@@H](O)[C@H](C)O2)[C@H](C)[C@@H](O[C@@H]2O[C@H](C)C[C@H](N(C)C)[C@H]2O)[C@](C)(O)C[C@@H](C)CN(CCCNC(=O)Nc2ccc(F)c(F)c2)[C@H](C)[C@@H](O)[C@]1(C)O.O=CO [Example 76]
12 | 0.186 µg/mL | 0.0896 µg/mL | CC[C@H]1OC(=O)[C@H](C)[C@@H](O[C@H]2C[C@@](C)(OC)[C@@H](O)[C@H](C)O2)[C@H](C)[C@@H](O[C@@H]2O[C@H](C)C[C@H](N(C)C)[C@H]2O)[C@](C)(O)C[C@@H](C)CN(CCCNC(=O)Nc2ccc(Cl)cc2)[C@H](C)[C@@H](O)[C@]1(C)O.O=CO [Example 77]
13 | 0.222 µg/mL (≈ 0.218 µM) | 0.056 µg/mL (≈ 0.055 µM) | CC[C@H]1OC(=O)[C@H](C)[C@@H](O[C@H]2C[C@@](C)(OC)[C@@H](O)[C@H](C)O2)[C@H](C)[C@@H](O[C@@H]2O[C@H](C)C[C@H](N(C)C)[C@H]2O)[C@](C)(O)C[C@@H](C)CN(CCCNC(=S)NC(c2ccccc2)c2ccccc2)[C@H](C)[C@@H](O)[C@]1(C)O [Example 129]
14 | 0.153 µg/mL (≈ 0.145 µM) | 0.0683 µg/mL (≈ 0.0647 µM) | CCOC(=O)CCN(CCCN1C[C@H](C)C[C@@](C)(O)[C@H](O[C@@H]2O[C@H](C)C[C@H](N(C)C)[C@H]2O)[C@@H](C)[C@H](O[C@H]2C[C@@](C)(OC)[C@@H](O)[C@H](C)O2)[C@@H](C)C(=O)O[C@H](CC)[C@@](C)(O)[C@H](O)[C@H]1C)C(=S)NCCc1ccccc1 [Example 160, 9-Deoxo-9-dihydro-9a-{N′-[β-(ethoxycarbonyl)ethyl]-N′-[β-(phenylethyl)thiocarbamoyl]-γ-aminopropyl}-9a-aza-9a-homoerythromycin A]
15 | 0.142 µg/mL (≈ 0.132 µM) | 0.054 µg/mL (≈ 0.0505 µM) | CCOC(=O)CCN(CCCN1C[C@H](C)C[C@@](C)(O)[C@H](O[C@@H]2O[C@H](C)C[C@H](N(C)C)[C@H]2O)[C@@H](C)[C@H](O[C@H]2C[C@@](C)(OC)[C@@H](O)[C@H](C)O2)[C@@H](C)C(=O)O[C@H](CC)[C@@](C)(O)[C@H](O)[C@H]1C)C(=S)NCCCc1ccccc1 [Example 161, 9-Deoxo-9-dihydro-9a-{N′-[β-(ethoxycarbonyl)ethyl]-N′-[γ-(phenylpropyl)thiocarbamoyl]-γ-aminopropyl}-9a-aza-9a-homoerythromycin A]
16 | 0.104 µg/mL (≈ 0.1 µM) | 0.0693 µg/mL (≈ 0.0665 µM) | CCOC(=O)CCN(CCCN1C[C@H](C)C[C@@](C)(O)[C@H](O[C@@H]2O[C@H](C)C[C@H](N(C)C)[C@H]2O)[C@@H](C)[C@H](O[C@H]2C[C@@](C)(OC)[C@@H](O)[C@H](C)O2)[C@@H](C)C(=O)O[C@H](CC)[C@@](C)(O)[C@H](O)[C@H]1C)C(=S)NCc1ccccc1 [Example 162, 9-Deoxo-9-dihydro-9a-{N′-[β-(ethoxycarbonyl)ethyl]-N′-benzylthiocarbamoyl-γ-aminopropyl]-9a-aza-9a-homoerythromycin A]
17 | 0.135 µg/mL (≈ 0.124 µM) | 0.0679 µg/mL (≈ 0.0623 µM) | CCOC(=O)CCN(CCCN1C[C@H](C)C[C@@](C)(O)[C@H](O[C@@H]2O[C@H](C)C[C@H](N(C)C)[C@H]2O)[C@@H](C)[C@H](O[C@H]2C[C@@](C)(OC)[C@@H](O)[C@H](C)O2)[C@@H](C)C(=O)O[C@H](CC)[C@@](C)(O)[C@H](O)[C@H]1C)C(=O)NC(C)c1cccc2ccccc12 (stereo partly shown) [Example 163]
